According to patent US10898540B2, “Peptide having effects of increasing telomerase activity and extending telomere, and composition containing same” (GEMVAX & KAEL CO., LTD., priority 2016, dated 2021):

How the values were obtained:
telomere = assay: Telomere length (TeloTAGGG telomere length assay, Southern blot) in brain tissue of 3xTg-AD mice after subcutaneous administration; format: in vivo, mouse; conditions: 3xTg-AD mice, 0.01, 0.1 and 1 mg/kg s.c. three times a week for 2 months, whole brain tissue, FIG. 2
Text: (§1) To test the PEP1 therapeutic effect on Alzheimer's disease, Alzheimer transgenic mice (3×Tg-AD) were purchased from Jackson Laboratory.
(§2) To investigate the effect of PEP1 according to concentration after breeding, experimental animals were divided and then administered experimental materials as follows. As a positive control material, donepezil was used, the experimental animals were divided into five groups, and each group included 10 mice. Administered materials and doses per group are as follows. • Group 1: Saline • Group 2: 0.01 mg/kg ofPEP1 • Group 3: 0.1 mg/kg of PEP1 • Group 4: 1 mg/kg of PEP1 • Group 5: 1 mg/kg of donepezil
PEP1, saline and donepezil were subcutaneously injected at each concentration three times a week for 2 months from the 12th month, one month later (at the age of 15 months), the mice (10 mice per group) were anesthetized, and reperfusion was carried out through the heart of each mouse using 0.9% saline to remove blood. Afterward, the brain was extracted, and separated into the hippocampus and the whole brain area, thereby obtaining brain tissue, and the tissue was rapidly frozen using liquid nitrogen. […]

telomerase = assay: Telomerase activity (TeloTAGGG telomerase PCR ELISA, RTA) in brain tissue of 3xTg-AD mice after subcutaneous administration; format: in vivo, mouse; conditions: for increase of telomerase activity compared with saline-administered group (Group 1): s.c. three times a week for 2 months, whole brain tissue at age 15 months
Text: as §1, §2
PEP1, saline and donepezil were subcutaneously injected at each concentration three times a week for 2 months from the 12th month, one month later (at the age of 15 months), the mice (10 mice per group) were anesthetized, and reperfusion was carried out through the heart of each mouse using 0.9% saline to remove blood. Afterward, the brain was extracted, and separated into the hippocampus and the whole brain area, thereby obtaining brain tissue, and the tissue was rapidly frozen using liquid nitrogen.
To investigate PEP1-induced telomerase activity, TeloTAGGG telomerase PCR ELISAPLUS (Cat #12 013 789 001, Roche Boehringer-Mannheim, IN, USA) was used, the entire brain tissues prepared according to the method of Example 2-1 were pulverized, 200 μl of an ice-cold lysis buffer was added to […] of the tissue, incubated on ice for 30 minutes, and centrifuged at 16,000×g for 20 minutes to isolate 175 μl of a protein. 10 μg of the protein was quantified and mixed with a reaction mixture and an internal standard, followed by PCR (see FIG. 4). Hybridization was carried out, a sample was added to a specially-coated MP module to perform a reaction, and then absorbance was measured at 450 or 690 nm using an ELISA reader. Relative telomerase activities (RTAs) were calculated using a calculation formula (see FIG. 3).

**Q.** How did the telomere length (telomere) turn out when “EARPALLTSRLRFIPK (hTERT derived peptide fragment) [PEP1, hTERT-derived peptide consisting of 16 amino acids, telomerase location [611-626], made by Fmoc solid phase synthesis]” was run?
**A.** increased according to PEP1 administration concentration

**Q.** And the “increase of telomerase activity compared with saline-administered group (Group 1)” value (telomerase; 0.1 mg/kg (Group 3))?
**A.** 266%

**Q.** What about the “increase of telomerase activity compared with saline-administered group (Group 1)” value (telomerase; Group 4 (dose printed as 'mg/kg'; Group 4 = 1 mg/kg)) of the same sequence?
**A.** 370%

**Q.** And the “telomerase activity compared with donepezil-administered group (Group 5)” value (telomerase; Group 4 vs donepezil Group 5, s.c. three times a week for 2 months, FIG. 1)?
**A.** statistically significant increase
